Activity calls are given as the source filed them. No cut-off for these calls is given here.
Tests used:
[1] = target: T1, Mitogen-activated protein kinase kinase kinase 5 (Homo sapiens, UniProt Q99683); assay: Competitive inhibition of human recombinant N-terminal FLAG-tagged ASK1 expressed in baculovirus infected […] cells after 60 mins by scintillation counting analysis in presence of [gamma-33P]ATP
T1 sequence (Q99683 whole entry): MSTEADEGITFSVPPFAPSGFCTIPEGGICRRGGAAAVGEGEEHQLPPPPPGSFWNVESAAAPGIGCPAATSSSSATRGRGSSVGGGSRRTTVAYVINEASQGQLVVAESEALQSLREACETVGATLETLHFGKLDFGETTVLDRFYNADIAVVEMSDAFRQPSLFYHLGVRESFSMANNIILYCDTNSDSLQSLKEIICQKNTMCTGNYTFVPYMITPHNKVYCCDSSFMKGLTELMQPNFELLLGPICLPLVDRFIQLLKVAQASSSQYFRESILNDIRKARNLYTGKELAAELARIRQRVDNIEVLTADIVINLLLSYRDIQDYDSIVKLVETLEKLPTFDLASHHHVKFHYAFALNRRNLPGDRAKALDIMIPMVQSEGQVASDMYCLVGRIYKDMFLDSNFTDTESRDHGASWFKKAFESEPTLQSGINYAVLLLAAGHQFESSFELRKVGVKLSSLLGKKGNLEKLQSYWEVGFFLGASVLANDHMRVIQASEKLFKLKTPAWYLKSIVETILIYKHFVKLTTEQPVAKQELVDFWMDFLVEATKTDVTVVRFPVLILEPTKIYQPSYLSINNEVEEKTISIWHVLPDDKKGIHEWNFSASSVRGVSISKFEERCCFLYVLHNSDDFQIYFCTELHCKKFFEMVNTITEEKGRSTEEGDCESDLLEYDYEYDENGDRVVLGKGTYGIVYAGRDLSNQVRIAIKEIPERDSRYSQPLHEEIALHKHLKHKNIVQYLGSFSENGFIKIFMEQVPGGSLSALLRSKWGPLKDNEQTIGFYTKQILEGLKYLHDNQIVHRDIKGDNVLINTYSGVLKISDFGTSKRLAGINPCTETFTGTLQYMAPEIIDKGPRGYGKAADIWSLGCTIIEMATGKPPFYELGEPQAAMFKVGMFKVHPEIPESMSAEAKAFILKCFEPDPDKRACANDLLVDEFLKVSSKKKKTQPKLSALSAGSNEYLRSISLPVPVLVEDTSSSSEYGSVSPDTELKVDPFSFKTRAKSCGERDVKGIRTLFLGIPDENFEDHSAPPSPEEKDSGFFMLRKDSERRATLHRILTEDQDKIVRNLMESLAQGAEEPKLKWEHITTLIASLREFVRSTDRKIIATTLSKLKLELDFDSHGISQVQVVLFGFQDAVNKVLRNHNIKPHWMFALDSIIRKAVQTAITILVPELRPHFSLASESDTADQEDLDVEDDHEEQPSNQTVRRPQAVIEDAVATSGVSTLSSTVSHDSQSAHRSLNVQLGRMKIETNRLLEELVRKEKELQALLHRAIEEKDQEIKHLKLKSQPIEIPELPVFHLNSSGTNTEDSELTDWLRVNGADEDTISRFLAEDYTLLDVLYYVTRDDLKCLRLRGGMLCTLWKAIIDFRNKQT

physchem = settings: buffer, pH 7.4
Description: Lipophilicity, log D of the compound at pH 7.4

INS1 [2] = assay: Inhibition of ASK1 in rat INS1 ([…]) cells assessed as downregulation of streptozotocin-induced JNK phosphorylation at 0.3 to 10 uM incubated for 1 hr prior to streptozotocin induction measured after 1 hr by Western blot analysis; type: cell-based
INS1 [3] = assay: Inhibition of ASK1 in rat INS1 ([…]) cells assessed as downregulation of streptozotocin-induced p38 phosphorylation incubated for 1 hr prior to streptozotocin induction measured after 1 hr by Western blot analysis; type: cell-based
[4] = target: Mitogen-activated protein kinase 8 (Homo sapiens, UniProt P45983); assay: Inhibition of JNK1
[5] = target: Protein kinase C theta type (Homo sapiens, UniProt Q04759); assay: Inhibition of PKCtheta
[6] = target: Mitogen-activated protein kinase 14 (Homo sapiens, UniProt Q16539); assay: Inhibition of p38alpha
[7] = target: Glycogen synthase kinase-3 beta (Homo sapiens, UniProt P49841); assay: Inhibition of GSK3beta
[8] = target: T2, Mitogen-activated protein kinase kinase kinase 6 (Homo sapiens, UniProt O95382); assay: Inhibition of ASK2
T2 sequence (O95382 whole entry): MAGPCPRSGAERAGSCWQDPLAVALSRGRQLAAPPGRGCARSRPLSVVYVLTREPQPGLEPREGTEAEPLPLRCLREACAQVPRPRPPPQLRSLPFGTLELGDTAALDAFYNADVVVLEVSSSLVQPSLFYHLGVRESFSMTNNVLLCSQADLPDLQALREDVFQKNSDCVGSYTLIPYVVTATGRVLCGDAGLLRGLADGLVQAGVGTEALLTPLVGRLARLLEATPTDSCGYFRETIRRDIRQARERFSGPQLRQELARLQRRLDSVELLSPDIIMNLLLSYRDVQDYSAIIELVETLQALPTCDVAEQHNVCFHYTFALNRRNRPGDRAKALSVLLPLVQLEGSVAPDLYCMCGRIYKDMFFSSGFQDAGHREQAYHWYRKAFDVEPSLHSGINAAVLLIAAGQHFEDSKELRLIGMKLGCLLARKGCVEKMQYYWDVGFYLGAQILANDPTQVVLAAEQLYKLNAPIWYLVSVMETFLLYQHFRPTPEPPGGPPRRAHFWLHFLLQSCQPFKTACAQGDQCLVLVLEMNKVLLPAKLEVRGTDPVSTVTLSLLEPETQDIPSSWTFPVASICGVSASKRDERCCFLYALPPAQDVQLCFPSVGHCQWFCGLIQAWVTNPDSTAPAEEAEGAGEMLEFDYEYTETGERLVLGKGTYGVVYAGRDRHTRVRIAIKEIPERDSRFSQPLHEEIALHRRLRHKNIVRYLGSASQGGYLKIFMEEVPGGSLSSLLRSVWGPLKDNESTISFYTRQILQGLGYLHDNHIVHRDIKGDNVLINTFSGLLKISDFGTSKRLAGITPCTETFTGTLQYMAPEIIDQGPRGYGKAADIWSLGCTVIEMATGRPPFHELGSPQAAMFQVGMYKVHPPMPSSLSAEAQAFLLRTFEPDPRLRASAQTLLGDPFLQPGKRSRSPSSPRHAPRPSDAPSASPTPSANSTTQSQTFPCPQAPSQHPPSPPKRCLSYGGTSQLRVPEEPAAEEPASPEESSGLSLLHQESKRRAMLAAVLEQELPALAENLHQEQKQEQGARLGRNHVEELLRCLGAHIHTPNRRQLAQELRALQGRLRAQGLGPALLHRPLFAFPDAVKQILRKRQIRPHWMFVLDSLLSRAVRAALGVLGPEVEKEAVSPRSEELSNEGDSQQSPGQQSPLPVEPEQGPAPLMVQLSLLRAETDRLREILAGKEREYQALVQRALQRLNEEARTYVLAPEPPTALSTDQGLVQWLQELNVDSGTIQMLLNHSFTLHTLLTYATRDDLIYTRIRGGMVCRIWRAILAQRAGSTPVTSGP

[9] = target: Serine/threonine-protein kinase B-raf (Homo sapiens, UniProt P15056); assay: Inhibition of BRAF
[10] = target: Mitogen-activated protein kinase 3 (Homo sapiens, UniProt P27361); assay: Inhibition of ERK1
[11] = target: T3, Inhibitor of nuclear factor kappa-B kinase subunit beta (Homo sapiens, UniProt O14920); assay: Inhibition of IKKbeta
T3 sequence (O14920 whole entry): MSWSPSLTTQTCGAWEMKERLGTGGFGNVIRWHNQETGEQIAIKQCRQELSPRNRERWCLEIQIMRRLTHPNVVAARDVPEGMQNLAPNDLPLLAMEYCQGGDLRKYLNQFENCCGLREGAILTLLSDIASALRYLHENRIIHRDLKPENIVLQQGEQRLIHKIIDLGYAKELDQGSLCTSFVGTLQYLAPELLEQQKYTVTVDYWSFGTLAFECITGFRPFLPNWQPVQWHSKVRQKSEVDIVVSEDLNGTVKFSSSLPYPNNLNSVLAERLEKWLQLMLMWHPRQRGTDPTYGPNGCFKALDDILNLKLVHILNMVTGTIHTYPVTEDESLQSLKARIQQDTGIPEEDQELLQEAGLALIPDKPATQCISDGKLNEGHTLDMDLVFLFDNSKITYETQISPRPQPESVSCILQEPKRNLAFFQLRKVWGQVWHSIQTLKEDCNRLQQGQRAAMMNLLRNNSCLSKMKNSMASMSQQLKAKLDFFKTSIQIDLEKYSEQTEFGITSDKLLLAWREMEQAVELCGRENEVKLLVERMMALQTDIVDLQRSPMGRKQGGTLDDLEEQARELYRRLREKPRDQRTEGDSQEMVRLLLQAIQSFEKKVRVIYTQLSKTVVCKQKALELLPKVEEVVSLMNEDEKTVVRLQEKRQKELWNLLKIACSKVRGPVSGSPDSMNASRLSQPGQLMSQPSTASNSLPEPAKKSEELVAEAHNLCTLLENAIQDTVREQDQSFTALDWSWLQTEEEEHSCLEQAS

[12] = target: Mitogen-activated protein kinase kinase kinase 1 (Homo sapiens, UniProt Q13233); assay: Inhibition of MEKK1
Mitogen-activated protein kinase kinase kinase 1, sequence (Q13233 whole entry): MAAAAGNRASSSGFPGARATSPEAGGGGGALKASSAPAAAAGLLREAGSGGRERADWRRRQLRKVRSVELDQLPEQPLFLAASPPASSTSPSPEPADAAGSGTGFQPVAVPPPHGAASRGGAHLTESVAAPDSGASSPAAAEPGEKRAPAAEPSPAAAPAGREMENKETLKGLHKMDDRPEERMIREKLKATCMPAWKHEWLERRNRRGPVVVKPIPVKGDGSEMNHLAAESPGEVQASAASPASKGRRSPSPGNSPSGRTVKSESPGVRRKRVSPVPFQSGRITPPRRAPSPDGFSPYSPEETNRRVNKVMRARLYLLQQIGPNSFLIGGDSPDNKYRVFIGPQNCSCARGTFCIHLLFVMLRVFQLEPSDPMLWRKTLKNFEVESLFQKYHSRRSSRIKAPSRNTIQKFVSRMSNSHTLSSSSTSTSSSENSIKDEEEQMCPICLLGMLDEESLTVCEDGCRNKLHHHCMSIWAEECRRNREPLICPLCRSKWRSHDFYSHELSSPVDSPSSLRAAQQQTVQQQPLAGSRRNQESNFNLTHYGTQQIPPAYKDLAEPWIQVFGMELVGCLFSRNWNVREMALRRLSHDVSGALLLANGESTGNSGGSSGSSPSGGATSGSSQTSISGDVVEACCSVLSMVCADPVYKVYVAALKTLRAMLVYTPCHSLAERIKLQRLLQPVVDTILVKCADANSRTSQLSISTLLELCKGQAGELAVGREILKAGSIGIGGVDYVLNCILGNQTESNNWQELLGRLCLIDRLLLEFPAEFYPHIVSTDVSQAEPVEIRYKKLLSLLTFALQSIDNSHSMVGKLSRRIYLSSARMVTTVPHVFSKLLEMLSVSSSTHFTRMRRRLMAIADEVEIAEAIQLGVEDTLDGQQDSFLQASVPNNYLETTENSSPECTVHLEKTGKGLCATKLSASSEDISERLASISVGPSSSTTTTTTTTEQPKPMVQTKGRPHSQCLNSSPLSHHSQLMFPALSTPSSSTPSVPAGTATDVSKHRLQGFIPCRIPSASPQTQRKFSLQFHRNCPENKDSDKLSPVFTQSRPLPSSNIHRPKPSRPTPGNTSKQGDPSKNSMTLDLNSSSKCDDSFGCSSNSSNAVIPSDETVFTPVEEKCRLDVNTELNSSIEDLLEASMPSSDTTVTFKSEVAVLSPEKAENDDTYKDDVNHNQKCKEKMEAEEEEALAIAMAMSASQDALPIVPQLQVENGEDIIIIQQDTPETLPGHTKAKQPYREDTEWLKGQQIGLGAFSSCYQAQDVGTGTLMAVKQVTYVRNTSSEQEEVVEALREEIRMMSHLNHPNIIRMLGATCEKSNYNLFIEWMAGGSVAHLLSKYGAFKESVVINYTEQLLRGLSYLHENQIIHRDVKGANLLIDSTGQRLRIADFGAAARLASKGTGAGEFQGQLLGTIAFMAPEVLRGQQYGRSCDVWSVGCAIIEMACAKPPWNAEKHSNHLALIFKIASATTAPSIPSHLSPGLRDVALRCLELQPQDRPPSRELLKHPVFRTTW

Glycogen synthase kinase-3 beta, sequence (P49841 whole entry): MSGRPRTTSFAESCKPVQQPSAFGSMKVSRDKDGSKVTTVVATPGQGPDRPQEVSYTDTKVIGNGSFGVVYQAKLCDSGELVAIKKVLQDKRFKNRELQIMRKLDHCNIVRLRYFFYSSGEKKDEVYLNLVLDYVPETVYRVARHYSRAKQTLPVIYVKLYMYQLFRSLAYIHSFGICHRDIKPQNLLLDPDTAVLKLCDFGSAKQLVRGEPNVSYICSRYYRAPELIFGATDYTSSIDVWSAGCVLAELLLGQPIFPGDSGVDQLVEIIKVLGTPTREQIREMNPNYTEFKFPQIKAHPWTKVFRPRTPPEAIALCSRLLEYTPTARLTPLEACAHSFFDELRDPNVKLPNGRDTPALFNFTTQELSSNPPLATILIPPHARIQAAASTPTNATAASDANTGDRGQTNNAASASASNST
Mitogen-activated protein kinase 3, sequence (P27361 whole entry): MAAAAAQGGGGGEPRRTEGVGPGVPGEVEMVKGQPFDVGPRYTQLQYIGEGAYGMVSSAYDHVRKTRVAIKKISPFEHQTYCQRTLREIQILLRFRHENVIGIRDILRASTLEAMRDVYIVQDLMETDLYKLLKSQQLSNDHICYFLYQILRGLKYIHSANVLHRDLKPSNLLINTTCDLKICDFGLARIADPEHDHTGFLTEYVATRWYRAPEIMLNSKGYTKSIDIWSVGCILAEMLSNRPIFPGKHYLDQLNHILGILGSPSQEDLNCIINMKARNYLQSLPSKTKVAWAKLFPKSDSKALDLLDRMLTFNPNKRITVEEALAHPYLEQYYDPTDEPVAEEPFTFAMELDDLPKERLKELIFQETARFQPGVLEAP
Mitogen-activated protein kinase 8, sequence (P45983 whole entry): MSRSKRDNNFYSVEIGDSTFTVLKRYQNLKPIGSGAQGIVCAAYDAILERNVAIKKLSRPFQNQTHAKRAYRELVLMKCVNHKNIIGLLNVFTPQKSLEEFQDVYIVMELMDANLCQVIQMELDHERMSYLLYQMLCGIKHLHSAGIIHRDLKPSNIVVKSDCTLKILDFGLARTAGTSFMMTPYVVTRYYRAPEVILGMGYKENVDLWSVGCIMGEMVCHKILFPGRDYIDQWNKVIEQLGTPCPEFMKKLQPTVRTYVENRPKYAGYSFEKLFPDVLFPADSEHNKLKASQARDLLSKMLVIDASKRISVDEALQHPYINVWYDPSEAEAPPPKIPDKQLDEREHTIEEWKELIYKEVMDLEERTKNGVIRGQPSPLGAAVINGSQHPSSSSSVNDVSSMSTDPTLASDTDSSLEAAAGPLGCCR
Mitogen-activated protein kinase 14, sequence (Q16539 whole entry): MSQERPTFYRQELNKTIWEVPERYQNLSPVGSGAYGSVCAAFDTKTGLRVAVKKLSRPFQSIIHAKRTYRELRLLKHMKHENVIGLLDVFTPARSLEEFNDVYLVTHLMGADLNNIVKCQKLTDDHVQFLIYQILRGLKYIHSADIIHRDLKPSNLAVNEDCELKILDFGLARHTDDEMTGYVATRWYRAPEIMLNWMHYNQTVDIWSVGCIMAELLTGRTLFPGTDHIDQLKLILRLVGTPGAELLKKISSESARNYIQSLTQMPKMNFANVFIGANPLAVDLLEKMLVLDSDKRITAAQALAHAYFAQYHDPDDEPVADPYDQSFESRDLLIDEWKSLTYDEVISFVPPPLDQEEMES
Serine/threonine-protein kinase B-raf, sequence (P15056 whole entry): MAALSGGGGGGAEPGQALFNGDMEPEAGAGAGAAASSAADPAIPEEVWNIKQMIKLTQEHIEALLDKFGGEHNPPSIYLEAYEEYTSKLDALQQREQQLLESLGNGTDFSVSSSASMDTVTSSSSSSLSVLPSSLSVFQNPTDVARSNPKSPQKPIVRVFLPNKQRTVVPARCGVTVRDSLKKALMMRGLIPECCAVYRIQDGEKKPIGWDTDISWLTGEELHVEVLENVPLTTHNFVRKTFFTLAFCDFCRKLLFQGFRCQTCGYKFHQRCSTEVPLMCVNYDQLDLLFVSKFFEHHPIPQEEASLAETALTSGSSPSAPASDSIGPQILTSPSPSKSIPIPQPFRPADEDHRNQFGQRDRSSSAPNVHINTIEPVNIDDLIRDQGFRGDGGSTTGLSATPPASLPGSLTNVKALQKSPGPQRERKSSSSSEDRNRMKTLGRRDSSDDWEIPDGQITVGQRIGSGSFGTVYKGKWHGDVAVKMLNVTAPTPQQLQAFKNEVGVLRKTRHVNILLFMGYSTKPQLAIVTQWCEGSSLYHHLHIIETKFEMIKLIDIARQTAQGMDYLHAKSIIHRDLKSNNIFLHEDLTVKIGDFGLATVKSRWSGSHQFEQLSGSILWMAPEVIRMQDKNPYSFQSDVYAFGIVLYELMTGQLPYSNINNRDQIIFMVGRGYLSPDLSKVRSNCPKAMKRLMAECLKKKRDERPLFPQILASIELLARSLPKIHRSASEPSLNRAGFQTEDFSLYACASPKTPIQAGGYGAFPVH
Protein kinase C theta type, sequence (Q04759 whole entry): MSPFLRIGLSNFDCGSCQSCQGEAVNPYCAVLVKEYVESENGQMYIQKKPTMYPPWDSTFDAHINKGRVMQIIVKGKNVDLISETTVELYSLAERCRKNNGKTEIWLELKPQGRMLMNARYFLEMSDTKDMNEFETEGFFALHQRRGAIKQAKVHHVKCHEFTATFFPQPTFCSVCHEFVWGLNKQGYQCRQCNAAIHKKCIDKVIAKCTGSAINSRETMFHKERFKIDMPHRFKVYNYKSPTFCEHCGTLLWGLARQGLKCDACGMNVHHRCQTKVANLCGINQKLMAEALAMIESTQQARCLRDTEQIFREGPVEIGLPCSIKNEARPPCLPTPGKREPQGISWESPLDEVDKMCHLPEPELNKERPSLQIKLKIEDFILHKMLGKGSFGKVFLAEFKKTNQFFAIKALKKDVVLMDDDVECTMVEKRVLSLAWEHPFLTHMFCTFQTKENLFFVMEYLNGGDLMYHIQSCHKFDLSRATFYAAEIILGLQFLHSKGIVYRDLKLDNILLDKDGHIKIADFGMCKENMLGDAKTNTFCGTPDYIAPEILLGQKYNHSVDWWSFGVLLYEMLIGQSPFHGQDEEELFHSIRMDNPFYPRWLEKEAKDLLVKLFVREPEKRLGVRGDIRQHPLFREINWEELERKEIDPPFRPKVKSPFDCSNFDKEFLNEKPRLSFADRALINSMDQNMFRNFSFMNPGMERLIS

Row | Structure (SMILES) | IC50 [1] [nM] | logD (physchem) | further results
1 | CC(C)(C)c1ccc(C(=O)Nc2cn3cc(Br)ccc3n2)cc1 | 21 | 4.17 | –
2 | Cc1ccc2nc(NC(=O)c3ccc(C(C)(C)C)cc3)sc2c1 | 260 | 5.08 | –
3 | CC(C)(C)c1ccc(C(=O)Nc2cn3cc(-n4ccnc4)ccc3n2)cc1 [listing 1 of 3 here] | – | 3.16 | –
4 | CC(C)(CO)c1ccc(C(=O)Nc2cn3cc(-n4ccnc4)ccc3n2)cc1 | 32 | 1.62 | –
5 | CNCc1ccc2nc(NC(=O)c3ccc(C(C)(C)C)cc3)cn2c1 | 870 | 2.4 | –
6 | CC(C)(C)c1ccc(C(=O)Nc2cn3cc(-n4ccnc4)ccc3n2)cc1 [listing 2 of 3 here] | – | – | inhibition (INS1 [2]): Active; inhibition (INS1 [3]): Dose-dependent effect
7 | CC(C)(C)c1ccc(C(=O)Nc2cn3cc(-c4ccccc4)ccc3n2)cc1 | 82 | 4.83 | –
8 | CC(C)(O)c1ccc(C(=O)Nc2cn3cc(-n4ccnc4)ccc3n2)cc1 | 70 | 1.27 | –
9 | CC(C)(C)c1ccc(C(=O)Nc2cn3cc(F)ccc3n2)cc1 | 34 | 3.55 | –
10 | CC(C)(C)c1ccc(C(=O)Nc2cn3cc(-n4cccc4)ccc3n2)cc1 | 30 | – | –
11 | CC(C)(C)c1ccc(C(=O)Nc2cn3cc(Cl)ccc3n2)cc1 | 16 | 4.04 | –
12 | CC(C)(C)c1ccc(C(=O)Nc2cn3cc(CO)ccc3n2)cc1 | 129 | 2.83 | –
13 | CC(C)(C)c1ccc(C(=O)Nc2cn3cc(-c4cccnc4)ccc3n2)cc1 | 21 | 3.6 | –
14 | Cc1ccc2nc(NC(=O)c3ccc(C(C)(C)C)cc3)cn2c1 | 22 | 3.78 | –
15 | CC(C)(C)c1ccc(C(=O)Nc2cn3cc(-n4ccnc4)ccc3n2)cc1 [listing 3 of 3 here] | – | – | IC50 [4]: > 10 µM; IC50 [5]: > 10 µM; IC50 [6]: > 10 µM; IC50 [7]: > 10 µM; IC50 [8]: 510 nM; IC50 [9]: > 10 µM; IC50 [10]: > 10 µM; IC50 [11]: > 10 µM; IC50 [12]: > 10 µM
